Laboratory results as given in PubChem BioAssay (NCI).
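Cultured in 96-well plates, cells were exposed to test compound for 48 hours across five concentrations. The concentration for 50% growth inhibition is given as GI50. The concentration for full growth arrest is given as TGI.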

Experiments:
Experiment in all cases: NCI tumour cell line growth inhibition, 48 h
LOX IMVI melanoma = test system: LOX IMVI melanoma
PC-3 prostate = test system: PC-3 prostate
OVCAR-3 ovarian = test system: OVCAR-3 ovarian
M14 melanoma = test system: M14 melanoma
OVCAR-4 ovarian = test system: OVCAR-4 ovarian
RXF 393 renal = test system: RXF 393 renal
SNB-75 CNS = test system: SNB-75 CNS
TK-10 renal = test system: TK-10 renal
IGROV1 ovarian = test system: IGROV1 ovarian
SF-539 CNS = test system: SF-539 CNS

SMILES	TGI (LOX IMVI melanoma) [µM]	TGI (PC-3 prostate) [µM]	TGI (OVCAR-3 ovarian) [µM]	TGI (M14 melanoma) [µM]	TGI (OVCAR-4 ovarian) [µM]	TGI (RXF 393 renal) [µM]	TGI (SNB-75 CNS) [µM]	TGI (TK-10 renal) [µM]	TGI (IGROV1 ovarian) [µM]	TGI (SF-539 CNS) [µM]	GI50 (PC-3 prostate) [µM]	GI50 (OVCAR-3 ovarian) [µM]	GI50 (M14 melanoma) [µM]	GI50 (OVCAR-4 ovarian) [µM]	GI50 (RXF 393 renal) [µM]	GI50 (SNB-75 CNS) [µM]	GI50 (TK-10 renal) [µM]	GI50 (IGROV1 ovarian) [µM]
CC1NCCC(CC(=O)O)C1CC(=O)O (stereo not drawn)	> 100	> 100	> 100	> 100	> 100	> 100	> 100	> 100	> 100	–	–	–	–	–	–	–	–	–
Cc1nc2cc3[nH]c4ccccc4c(=O)c3cc2s1	–	–	> 100	> 100	> 100	> 100	> 100	> 100	> 100	> 100	–	–	–	–	–	–	–	–
O=S(=O)(O)c1ccc([Se][Se]c2ccc(S(=O)(=O)O)cc2)cc1	> 100	–	> 100	> 100	> 100	> 100	> 100	> 100	> 100	> 100	–	–	–	–	–	–	–	–
CC1=NN(c2ccccc2)C(=O)C1N=Nc1ccc(Br)cc1C (stereo not drawn)	–	–	> 100	> 100	> 100	> 100	48.3	> 100	> 100	> 100	–	–	–	–	–	–	–	–
CCCCCCCN(CCCCCCC)C(=N)c1ccc(OC)c2ccccc12	–	2.78	3.17	2.95	3.02	3.01	2.6	2.88	2.7	–	1.35	1.6	1.53	1.36	1.3	1.3	1.46	1.1
O=C1C2=C(c3ccccc31)C(c1ccc([N+](=O)[O-])cc1)NC(=S)N2 (stereo not drawn)	–	–	> 100	> 100	> 100	–	98.6	> 100	> 100	> 100	–	–	–	–	–	–	–	–
CC#CC#C/C=C1/C=CC2(CCCCO2)O1 (stereo not drawn)	> 100	> 100	–	> 100	> 100	–	> 100	> 100	> 100	> 100	–	–	–	–	–	–	–	–
Cc1c2cc[n+](C)cc2c(C)c2c1[nH]c1ccc(OC(C)(C)C)cc12	> 100	–	–	> 100	> 100	> 100	> 100	> 100	> 100	> 100	–	–	–	–	–	–	–	–
N#Cc1cc([N+](=O)[O-])ccc1NC(=O)C(=O)Nn1c(=S)[nH]c2ccccc2c1=O	> 100	–	> 100	> 100	> 100	> 100	> 100	> 100	> 100	> 100	–	–	–	–	–	–	–	–
O=C(NNC(=O)/C(=C/c1cccc([N+](=O)[O-])c1)NC(=O)c1ccccc1)Nc1ccc(Cl)cc1	30.2	–	25.4	26.9	26.9	25.6	36	31.7	27.4	35.1	–	–	–	–	–	–	–	–
O=C(Nc1ccn(C2CCC(COC(c3ccccc3)(c3ccccc3)c3ccccc3)O2)c(=O)n1)c1ccccc1 (stereo not drawn)	7.02	5.71	6.47	11.8	7.71	11.1	8.35	–	13.4	7	–	–	–	–	–	–	–	–
O=C1/C(=C/c2ccc(C(=O)O)cc2)CNC/C1=C\c1ccc(C(=O)O)cc1	–	–	> 100	> 100	> 100	> 100	> 100	> 100	> 100	> 100	–	–	–	–	–	–	–	–
COc1ccc(CC2OC3(CCCCC3)CC3CCCCN32)cc1 (stereo not drawn)	> 100	> 100	> 100	> 100	> 100	> 100	> 100	> 100	> 100	–	–	–	–	–	–	–	–	–
CCCCCCCCCCCCCC(=O)OCC1OC(=O)C(O)C1O (stereo not drawn)	> 100	–	> 100	> 100	> 100	–	> 100	> 100	> 100	> 100	–	–	–	–	–	–	–	–
Clc1cc2ns[s+]c2cc1Cl	> 100	–	> 100	> 100	> 100	> 100	> 64.2	98.9	> 100	> 100	–	–	–	–	–	–	–	–
CC(C)c1cccc(C(C)C)c1NC(=O)/C(Cc1nc2ccc(Cl)cc2[nH]c1=O)=N\NC(=O)C[N+](C)(C)C	–	–	> 100	> 100	> 100	> 100	–	> 100	> 100	> 100	–	–	–	–	–	–	–	–
c1ccc2cc(Cn3c(-c4cccc5ccccc45)[n+](Cc4ccc5ccccc5c4)c4c5ccccc5c5ccccc5c43)ccc2c1	–	1.53	–	–	1.41	–	1.19	–	–	–	0.158	–	–	0.324	–	0.261	–	–
O=S1c2ccccc2N=C(c2cccs2)CC1c1ccccc1O (stereo not drawn)	> 100	–	> 100	> 100	> 100	> 100	> 100	> 100	> 100	> 100	–	–	–	–	–	–	–	–
CN1C(=O)CC(CC(=O)C2CCCCC2=O)CC1=O (stereo not drawn)	> 100	–	> 100	> 100	> 100	> 100	> 100	> 100	> 100	> 100	–	–	–	–	–	–	–	–
C/C(COc1ccccc1)=N\NC(N)=S	> 100	–	> 100	> 100	> 100	> 100	> 100	> 100	> 100	> 100	–	–	–	–	–	–	–	–
CN(C)c1ccc(/C=C(\C#N)C(=O)c2ccccc2)cc1Br	74.2	–	> 100	> 100	> 100	29.6	> 100	> 100	–	> 100	–	–	–	–	–	–	–	–
CCn1c(C)nc([N+](=O)[O-])c1Sc1ncc[nH]1	42.2	–	> 100	> 100	> 100	–	> 100	> 100	> 100	> 100	–	–	–	–	–	–	–	–
COc1ccc2c(c1)C(=O)CC(C(N)=O)C2 (stereo not drawn)	> 100	> 100	> 100	> 100	> 100	> 100	> 100	> 100	> 100	–	–	–	–	–	–	–	–	–
CCOC1=C2N=C(C(CC)c3ccc(F)cc3)N=C2C(=O)c2ccccc21 (stereo not drawn)	29.7	–	> 91.1	> 68.3	> 94.4	39.5	81.5	66.7	> 100	21.6	–	–	–	–	–	–	–	–
